Data on ten compounds can be found in ChEMBL document CHEMBL1201862, “PubChem BioAssay data set” (2004).

Holding throughout (experiment): inhibition of tumour cell growth, NCI panel, 48 h
Assay [1] relates to CCRF-CEM.
Assay [2] deals with RPMI-8226.
Assay [3] relates to SK-MEL-2.
Assay [4] concerns MDA-N.
The subject of assay [5] is IGROV-1.
Assay [6] concerns UACC-257.
Assay [7] relates to 786-0.
In assay [8] the test system is UO-31.
Assay [9] relates to NCI-H226.
Assay [10] relates to SN12C.
Assay [11] has as its system SK-OV-3.
Assay [12] relates to TK-10.
For assay [13], the system named is Hs-578T.
Assay [14] relates to NCI-H460.
The subject of assay [15] is K562.
Assay [16] relates to M14.
Assay [17] deals with SF-295.
Assay [18] concerns MDA-MB-231.
The test system of assay [19] is OVCAR-3.

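Tested at 5 concentrations; 48 h exposure; 96-well plates; endpoints linearly interpolated, else capped at highest concentration. GI50 = concentration required for 50% inhibition of growth.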 Calls of active or inactive are those of the source. No stated cut-off is given here; in the data, active = GI50 up to about 1.1 µM and inactive = higher. Where a SMILES comes first, the peptide text is derived from it. [ ]: non-standard residue; d: D form. The star is where a group is joined. Bn2Val = CC(C)[C@@H](C(=O)*)N(Cc1ccccc1)Cc1ccccc1; NH(4-F-benzyl) = Fc1ccc(CN*)cc1; NMeV = CN[C@H](C(=O)O)C(C)C; dNMeA = CN[C@H](C)C(=O)O

For the compound `c1ccc2c(c1)c1c(n2CCOCCN2CCCC2)CCCC1`, the GI50 in assay [1] was 20.9 µM (inactive); in [2], 18.2 µM (inactive); in assay [3], 16.4 µM (inactive); in [4], 19.4 µM (inactive); in assay [5], 23.7 µM (inactive); in assay [6], 22.4 µM (inactive). The GI50 was 16.1 µM (inactive) in [7]; 12.8 µM (inactive) in [8]; 22.4 µM (inactive) in assay [9]; 17.5 µM (inactive) in assay [10]; 31.3 µM (inactive) in [11]; 19.5 µM (inactive) in [12]. Also, the GI50 in assay [13] is 14.9 µM (inactive); in assay [14], 15 µM (inactive); in assay [15] it was 15 µM (inactive); in assay [16], 15.6 µM (inactive); in assay [17], 37.2 µM (inactive); in assay [18], 16.4 µM (inactive). Further, the GI50 in assay [19] is 25.4 µM (inactive).
`OC12CC3c4ccccc4NC3C3Oc4cccc5c4C31CCN(CC1CC1)C2C5` (stereo not given): the GI50 is 23.4 µM (inactive) in assay [1]; 18.4 µM (inactive) in [2]; 19.5 µM (inactive) in assay [3]; 17.9 µM (inactive) in assay [4]; 15.5 µM (inactive) in assay [5]; 17.8 µM (inactive) in [6]. The GI50 is 16.7 µM (inactive) in assay [7]; 15.8 µM (inactive) in assay [8]; 26.1 µM (inactive) in [9]; 17.2 µM (inactive) in assay [10]; 18.7 µM (inactive) in assay [11]; 17.3 µM (inactive) in assay [12]. The GI50 was 23.9 µM (inactive) in assay [13]; 17.6 µM (inactive) in assay [14]; 15.5 µM (inactive) in assay [15]; 17.7 µM (inactive) in [16]; 30.9 µM (inactive) in assay [17]; 17.9 µM (inactive) in [18]. Also, the GI50 in assay [19] is 16.9 µM (inactive).
As to `CC(C)[C@H](NC(=O)[C@H](C(C)C)N(Cc1ccccc1)Cc1ccccc1)C(=O)N(C)[C@H](C(=O)N1CCC[C@H]1C(=O)N(C)[C@H](C)C(=O)NCc1ccc(F)cc1)C(C)C` (Bn2Val-V[NMeV]P[dNMeA]-{NH(4-F-benzyl)}), the GI50 in assay [1] was 3.65 µM (inactive); in assay [2], 3.27 µM (inactive); in assay [3], 2.12 µM (inactive); in [4] it was 4.29 µM (inactive); in assay [5], 3.19 µM (inactive); in assay [6] it was 5.19 µM (inactive). Further, the GI50 was 4.23 µM (inactive) in [7]; 2.19 µM (inactive) in assay [8]; 2.65 µM (inactive) in [9]; 3.15 µM (inactive) in [10]; 5.35 µM (inactive) in assay [11]; 5.48 µM (inactive) in assay [12]. For the same compound, the GI50 is 4.5 µM (inactive) in assay [13]; 4 µM (inactive) in assay [14]; 3.78 µM (inactive) in [15]; 3.05 µM (inactive) in [16]; 3.44 µM (inactive) in [17]; 3.55 µM (inactive) in assay [18]. Also, the GI50 in [19] was 2.88 µM (inactive).
On to `COC(=O)c1c(C)cccc1C1CN=NC12Cc1ccccc1C2=O` (stereo not given), for which the GI50 in [1] is 38.6 µM (inactive); in assay [2], 35.3 µM (inactive); in assay [3], > 100 µM (inactive); in assay [4], > 100 µM (inactive); in assay [5] it was > 91.2 µM (inactive); in assay [6] it was 36.1 µM (inactive). Further, the GI50 in assay [7] is > 100 µM (inactive); in [8] it was 33.1 µM (inactive); in assay [9] it was > 83.4 µM (inactive); in [10] it was > 100 µM (inactive); in assay [11] it was > 100 µM (inactive); in assay [12], > 100 µM (inactive). Besides, the GI50 in assay [13] is 96.2 µM (inactive); in assay [14] it was > 75.9 µM (inactive); in assay [15], 37.1 µM (inactive); in assay [16] it was 20.1 µM (inactive); in assay [17] it was 62.2 µM (inactive); in [18] it was 45.7 µM (inactive). In addition, in assay [19], the GI50 was 15.7 µM (inactive).
In the case of `N#C[C@@]12CCCC(=O)[C@@H]1[C@H]1CCC[C@H]12`, the GI50 in assay [1] is 16.6 µM (inactive); in [2], 11 µM (inactive); in assay [3] it was 16.9 µM (inactive); in assay [4] it was 18.8 µM (inactive); in assay [5] it was 16.5 µM (inactive); in assay [6], 20.2 µM (inactive). Further, the GI50 in assay [7] is 14.7 µM (inactive); in assay [8], 16.1 µM (inactive); in [9], 20.7 µM (inactive); in assay [10], 16.4 µM (inactive); in assay [11], 14.7 µM (inactive); in assay [12], 19.9 µM (inactive). Further, the GI50 in [13] is 31.3 µM (inactive); in [14], 16.6 µM (inactive); in assay [15], 17.7 µM (inactive); in [16], 12.9 µM (inactive); in assay [17], 24.7 µM (inactive); in [18], 14.6 µM (inactive). Further, the GI50 in assay [19] is 10.3 µM (inactive).
With `O=C(NCCCCl)c1c(O)c2ccccc2[nH]c1=O`, the GI50 was > 100 µM (inactive) in assay [1]; > 100 µM (inactive) in assay [2]; > 94 µM (inactive) in assay [3]; > 100 µM (inactive) in assay [4]; > 100 µM (inactive) in assay [5]; > 100 µM (inactive) in assay [6]. The GI50 in assay [7] is > 61 µM (inactive); in assay [8] it was > 100 µM (inactive); in assay [9] it was > 100 µM (inactive); in assay [10], > 100 µM (inactive); in [11] it was > 80.5 µM (inactive); in assay [12], > 100 µM (inactive). For the same compound, the GI50 was > 56.8 µM (inactive) in assay [13]; > 100 µM (inactive) in assay [14]; > 100 µM (inactive) in [15]; > 100 µM (inactive) in assay [16]; > 48.9 µM (inactive) in [17]; > 100 µM (inactive) in assay [18]. In [19], the GI50 was > 100 µM (inactive).
For `Nc1ncnc2c1nc(Cl)n2C1OC(CO)C(O)C1O` (stereo not given), the GI50 was 0.607 µM (active) in assay [1]; 1.44 µM (inactive) in assay [2]; 2.02 µM (inactive) in [3]; 2.94 µM (inactive) in assay [4]; 0.653 µM (active) in assay [5]; 4.48 µM (inactive) in [6]. In addition, the GI50 in assay [7] is 1.79 µM (inactive); in [8], 0.906 µM (active); in [9] it was 1.63 µM (inactive); in assay [10], 1.88 µM (inactive); in assay [11], 2.74 µM (inactive); in [12], 0.502 µM (active). In addition, the GI50 is 15.3 µM (inactive) in [13]; 0.414 µM (active) in assay [14]; 0.347 µM (active) in [15]; 0.9 µM (active) in [16]; 5.11 µM (inactive) in assay [17]; 6.95 µM (inactive) in assay [18]. Besides, the GI50 in assay [19] was 2.75 µM (inactive).
Turning to `COC(=O)C1=CS/C(=C2\S[C@@H]3[C@H](S2)[C@H]2C=C[C@@H]3C2)S1`, the GI50 is 17.6 µM (inactive) in assay [1]; 30.7 µM (inactive) in assay [2]; 32.5 µM (inactive) in [3]; 3.49 µM (inactive) in [4]; 39.2 µM (inactive) in assay [5]; 66.5 µM (inactive) in [6]. Besides, the GI50 in assay [7] was 92 µM (inactive); in assay [8] it was 46.1 µM (inactive); in [9] it was 87.7 µM (inactive); in assay [10], > 100 µM (inactive); in assay [11], 47 µM (inactive); in [12], > 100 µM (inactive). In addition, the GI50 in [13] was 81.3 µM (inactive); in assay [14] it was 34.9 µM (inactive); in [15] it was 2.74 µM (inactive); in [16] it was 48.3 µM (inactive); in [17], 2.96 µM (inactive); in assay [18], > 100 µM (inactive). The GI50 in assay [19] was 33.2 µM (inactive).
In the case of `COc1ccc2[nH]c3c(C)c4ccnc(NCCCN(C)CCCNC(=O)NCCCN(C)CCCNc5nccc6c(C)c7[nH]c8ccc(OC)cc8c7c(C)c56)c4c(C)c3c2c1`, the GI50 in assay [1] was 0.147 µM (active); in assay [2], 0.564 µM (active); in [3], 1.35 µM (inactive); in assay [4], 0.748 µM (active); in assay [5] it was 0.476 µM (active); in assay [6], 1.6 µM (inactive). Moreover, the GI50 was 0.233 µM (active) in [7]; 0.881 µM (active) in assay [8]; 0.526 µM (active) in assay [9]; 0.269 µM (active) in assay [10]; 1.67 µM (inactive) in [11]; 1.48 µM (inactive) in [12]. Moreover, the GI50 is 0.977 µM (active) in assay [13]; 0.348 µM (active) in assay [14]; 0.23 µM (active) in assay [15]; 0.753 µM (active) in assay [16]; 0.566 µM (active) in assay [17]; 0.403 µM (active) in [18]. Also, the GI50 in assay [19] is 1.29 µM (inactive).
Take `CC1=NN=C(C)C1/N=N/c1ccc2[nH]c(C)nc2c1`: the GI50 in assay [1] is 32.3 µM (inactive); in [2], 13.7 µM (inactive); in assay [3], 8.07 µM (inactive); in assay [4], 19.8 µM (inactive); in [5], 5.62 µM (inactive); in assay [6] it was 47.6 µM (inactive). The GI50 is 34.4 µM (inactive) in assay [7]; 19.2 µM (inactive) in assay [8]; 3.84 µM (inactive) in assay [9]; > 52 µM (inactive) in assay [10]; 5.27 µM (inactive) in assay [11]; 14.1 µM (inactive) in assay [12]. Also, the GI50 in [13] was 5.36 µM (inactive); in assay [14], 11 µM (inactive); in assay [15], > 69.2 µM (inactive); in assay [16], 23.1 µM (inactive); in assay [17], 17.9 µM (inactive); in assay [18], 28.6 µM (inactive). Also, in [19], the GI50 was 13.4 µM (inactive).
